# According to patent US20200339625A1, “NOVEL RADIOMETAL-BINDING COMPOUNDS FOR DIAGNOSIS OR TREATMENT OF PROSTATE SPECIFIC MEMBRANE ANTIGEN-EXPRESSING CANCER” (PROVINCIAL HEALTH SERVICES AUTHORITY, priority 2017, published 2020):
# Experiments:
# [1] = system: mice bearing PSMA-expressing LNCAP cancer xenografts; assay: Biodistribution of 68Ga-labeled compounds; assay type: in vivo
# Procedure: (§1) Imaging and biodistribution experiments were performed using NODSCID 1L2RyKO male mice. Mice were anesthetized by inhalation with 2% isoflurane in oxygen, and implanted subcutaneously with 1×10^7 LNCaP cells behind left shoulder. Mice were imaged or used in biodistribution studies when the tumor grew up to reach 5-8 mm in diameter during 5-6 weeks.
# For biodistribution studies, the mice were injected with the radiotracer as described above. At predetermined time points (1 or 3 h), the mice was anesthetized with 2% isoflurane inhalation, and euthanized by CO2 inhalation. Blood was withdrawn immediately from the heart, and the organs/tissues of interest were collected. The collected organs/tissues were weighed and counted using an automatic gamma counter. The uptake in each organ/tissue was normalized to the injected dose using a standard curve, and expressed as the percentage of the injected dose per gram of tissue (% ID/g).
# [2] = system: mice bearing LNCaP tumor xenografts; assay: PET/CT imaging of 68Ga-labeled compounds; assay type: in vivo; settings: PET/CT images
# Procedure: 2.17 PET/CT Imaging and Biodistribution
# as §1
# PET imaging experiments were conducted using Siemens Inveon micro PET/CT scanner. Each tumor bearing mouse was injected 6-8 MBq of 68Ga-labeled tracer through the tail vein under anesthesia (2% isoflurane in oxygen). The mice were allowed to recover and roam freely in their cage. After 50 min, the mice were sedated again with 2% isoflurane in oxygen inhalation and positioned in the scanner. A 10-min CT scan was conducted first for localization and attenuation correction after segmentation for reconstructing the PET images. Then, a 10-min static PET imaging was performed to determined uptake in tumor and other organs. The mice were kept warm by a heating pad during acquisition. For imaging studies acquired at 3 h post-injection (p.i.), the mice were placed in the micro PET/CT scanner at 170 min p.i. Then, the CT acquisitions were conducted as described above, a 15-min static PET imaging was performed to determined uptake in tumor and other organs.
compound,measurement,setting,value
O=C([O-])CN1CCN(CC(=O)[O-])CCN(CC(=O)NCC2CCC(C(=O)NC(Cc3ccc4cc5ccccc5cc4c3)C(=O)NCCCCC(NC(=O)NC(CCC(=O)O)C(=O)O)C(=O)O)CC2)CCN(CC(=O)[O-])CC1.[68Ga+3] (centres unmarked) [^68Ga-HTK03027],Adrenal glands uptake,[1]; 1 h post-injection,3.55 ± 2.33 % ID/g
same,Blood uptake,[1]; 1 h post-injection,1.56 ± 0.57 % ID/g
same,Bone uptake,[1]; 1 h post-injection,0.70 ± 0.33 % ID/g
same,Brain uptake,[1]; 1 h post-injection,0.06 ± 0.03 % ID/g
same,Fat uptake,[1]; 1 h post-injection,1.03 ± 0.67 % ID/g
same,Heart uptake,[1]; 1 h post-injection,0.56 ± 0.24 % ID/g
same,Intestine uptake,[1]; 1 h post-injection,0.44 ± 0.12 % ID/g
same,Kidneys uptake,[1]; 1 h post-injection,85.6 ± 73.5 % ID/g
same,Lacrimal uptake,[1]; 1 h post-injection,1.00 ± 0.56 % ID/g
same,Liver uptake,[1]; 1 h post-injection,0.46 ± 0.10 % ID/g
same,Lungs uptake,[1]; 1 h post-injection,1.66 ± 0.67 % ID/g
same,Muscle uptake,[1]; 1 h post-injection,0.48 ± 0.37 % ID/g
same,Pancreas uptake,[1]; 1 h post-injection,0.57 ± 0.20 % ID/g
same,Salivary uptake,[1]; 1 h post-injection,1.86 ± 0.91 % ID/g
same,Seminal uptake,[1]; 1 h post-injection,10.6 ± 10.9 % ID/g
same,Spleen uptake,[1]; 1 h post-injection,3.36 ± 2.54 % ID/g
same,Stomach uptake,[1]; 1 h post-injection,0.17 ± 0.10 % ID/g
same,Tail uptake,[1]; 1 h post-injection,0.98 ± 0.38 % ID/g
same,Testes uptake,[1]; 1 h post-injection,0.56 ± 0.18 % ID/g
same,Thyroid uptake,[1]; 1 h post-injection,0.76 ± 0.33 % ID/g
same,Tumor uptake,[1]; 1 h post-injection,13.3 ± 5.44 % ID/g
same,Tumor:Blood ratio,[1]; 1 h post-injection,8.57 ± 2.83
same,Tumor:Muscle ratio,[1]; 1 h post-injection,35.0 ± 18.7
same,Tumor:kidney ratio,[1]; 1 h post-injection,0.27 ± 0.20
same,Urine uptake,[1]; 1 h post-injection,844 ± 645 % ID/g
same,excretion pathway,[2],excreted mainly via the renal pathway
same,tumor uptake (qualitative comparison),[2]; compounds of FIG. 13,comparable
Nc1ccc(CCCC(=O)NCC(=O)N[C@@H](CCCCNC(=O)CN2CCN(CC(=O)[O-])CCN(CC(=O)[O-])CCN(CC(=O)[O-])CC2)C(=O)NC[C@H]2CC[C@H](C(=O)N[C@@H](Cc3ccc4ccccc4c3)C(=O)NCCCC[C@H](NC(=O)N[C@@H](CCC(=O)O)C(=O)O)C(=O)O)CC2)cc1.[68Ga+3] [^68Ga-HTK03087],Adrenal glands uptake,[1]; 1 h post-injection,2.95 ± 0.92 % ID/g
same,Blood uptake,[1]; 1 h post-injection,1.74 ± 0.11 % ID/g
same,Bone uptake,[1]; 1 h post-injection,0.16 ± 0.02 % ID/g
same,Brain uptake,[1]; 1 h post-injection,0.04 ± 0.01 % ID/g
same,Fat uptake,[1]; 1 h post-injection,0.77 ± 0.14 % ID/g
same,Heart uptake,[1]; 1 h post-injection,0.52 ± 0.07 % ID/g
same,Intestine uptake,[1]; 1 h post-injection,0.32 ± 0.06 % ID/g
same,Kidneys uptake,[1]; 1 h post-injection,102 ± 8.91 % ID/g
same,Lacrimal uptake,[1]; 1 h post-injection,0.06 ± 0.05 % ID/g
same,Liver uptake,[1]; 1 h post-injection,0.44 ± 0.06 % ID/g
same,Lungs uptake,[1]; 1 h post-injection,1.75 ± 0.09 % ID/g
same,Muscle uptake,[1]; 1 h post-injection,0.31 ± 0.05 % ID/g
same,Pancreas uptake,[1]; 1 h post-injection,0.45 ± 0.02 % ID/g
same,Salivary uptake,[1]; 1 h post-injection,1.76 ± 0.16 % ID/g
same,Seminal uptake,[1]; 1 h post-injection,2.40 ± 2.83 % ID/g
same,Spleen uptake,[1]; 1 h post-injection,2.42 ± 0.79 % ID/g
same,Stomach uptake,[1]; 1 h post-injection,0.14 ± 0.05 % ID/g
same,Tail uptake,[1]; 1 h post-injection,0.91 ± 0.12 % ID/g
same,Testes uptake,[1]; 1 h post-injection,0.48 ± 0.06 % ID/g
same,Thyroid uptake,[1]; 1 h post-injection,0.74 ± 0.04 % ID/g
same,Tumor uptake,[1]; 1 h post-injection,20.7 ± 3.79 % ID/g
same,Tumor:Blood ratio,[1]; 1 h post-injection,11.9 ± 1.92
same,Tumor:Muscle ratio,[1]; 1 h post-injection,66.6 ± 9.63
same,Tumor:kidney ratio,[1]; 1 h post-injection,0.20 ± 0.02
same,Urine uptake,[1]; 1 h post-injection,196 ± 50.9 % ID/g
same,Adrenal glands uptake,[1]; 3 h post-injection,0.90 ± 0.36 % ID/g
same,Blood uptake,[1]; 3 h post-injection,0.52 ± 0.08 % ID/g
same,Bone uptake,[1]; 3 h post-injection,0.03 ± 0.03 % ID/g
same,Brain uptake,[1]; 3 h post-injection,0.01 ± 0.00 % ID/g
same,Fat uptake,[1]; 3 h post-injection,0.40 ± 0.11 % ID/g
same,Heart uptake,[1]; 3 h post-injection,0.16 ± 0.03 % ID/g
same,Intestine uptake,[1]; 3 h post-injection,0.23 ± 0.10 % ID/g
same,Kidneys uptake,[1]; 3 h post-injection,56.1 ± 20.3 % ID/g
same,Lacrimal uptake,[1]; 3 h post-injection,0.00 ± 0.00 % ID/g
same,Liver uptake,[1]; 3 h post-injection,0.31 ± 0.19 % ID/g
same,Lungs uptake,[1]; 3 h post-injection,0.53 ± 0.12 % ID/g
same,Muscle uptake,[1]; 3 h post-injection,0.08 ± 0.02 % ID/g
same,Pancreas uptake,[1]; 3 h post-injection,0.14 ± 0.03 % ID/g
same,Salivary uptake,[1]; 3 h post-injection,0.47 ± 0.07 % ID/g
same,Seminal uptake,[1]; 3 h post-injection,1.44 ± 3.04 % ID/g
same,Spleen uptake,[1]; 3 h post-injection,0.80 ± 0.31 % ID/g
same,Stomach uptake,[1]; 3 h post-injection,0.07 ± 0.04 % ID/g
same,Tail uptake,[1]; 3 h post-injection,0.27 ± 0.05 % ID/g
same,Testes uptake,[1]; 3 h post-injection,0.17 ± 0.05 % ID/g
same,Thyroid uptake,[1]; 3 h post-injection,0.24 ± 0.05 % ID/g
same,Tumor uptake,[1]; 3 h post-injection,20.4 ± 5.92 % ID/g
same,Tumor:Blood ratio,[1]; 3 h post-injection,39.2 ± 8.42
same,Tumor:Muscle ratio,[1]; 3 h post-injection,254 ± 88.9
same,Tumor:kidney ratio,[1]; 3 h post-injection,0.40 ± 0.16
same,Urine uptake,[1]; 3 h post-injection,339 ± 355 % ID/g
